PubChem BioAssay (NCI)
Where “and” joins values, the source holds several entries; their conditions need not be identical. Equal values may be shown once.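 Where inhibition never reached the appropriate level, the endpoint shown equals the highest concentration tested. Otherwise, values were interpolated linearly from a five-concentration, 48-hour dose response in 96-well plates. The concentration for 50% growth inhibition is given as GI50. Definition used: TGI = concentration required for complete inhibition of growth.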

Tests used:
Assay in all cases: DTP human tumour cell line panel, 48 h
[1] = test system: MALME-3M melanoma
[2] = test system: NCI/ADR-RES ovarian
[3] = test system: SK-MEL-5 melanoma
[4] = test system: SK-MEL-2 melanoma
[5] = test system: UACC-257 melanoma
[6] = test system: SK-OV-3 ovarian
[7] = test system: NCI-H23 lung
[8] = test system: CCRF-CEM leukemia
[9] = test system: HCT-15 colon
[10] = test system: MDA-MB-435

Compound	GI50 [1]	TGI [1]	GI50 [2]	TGI [2]	GI50 [3]	TGI [3]	GI50 [4]	TGI [4]	GI50 [5]	TGI [5]	GI50 [6]	TGI [6]	GI50 [7]	TGI [7]	GI50 [8]	TGI [8] [µM]	GI50 [9]	TGI [9]	GI50 [10]	TGI [10]
CN1CCN(Cc2ccc(NC(=O)c3cncc(C#Cc4ncc5ccccn45)c3)cc2C(F)(F)F)CC1	0.772 µM	3.6 µM	2.77 µM	16 µM	3.13 µM	6.37 µM	0.876 µM	3.82 µM	1.44 µM	4.57 µM	1.33 µM	4.58 µM	1.34 µM	5.75 µM	0.962 µM	8.3	1.2 µM	7.4 µM	2.01 µM	5.23 µM
COc1cc[nH]c1/C=C1\C(=O)Nc2ccc([N+](=O)[O-])c(N3CC[C@@H](O)C3)c21	0.921 µM	1.97 µM	0.53 µM	5.83 µM	0.181 µM	0.847 µM	0.229 µM	0.688 µM	0.474 µM	1.64 µM	0.631 µM	8.16 µM	0.484 µM	1.89 µM	0.0855 µM	1.51	0.123 µM	2.92 µM	0.271 µM	0.907 µM
CC1CC2(C)CC(=O)C1C1C(=O)N(CCN3CCOCC3)C(=O)C12 (configuration not stated)	> 100 µM	> 100 µM	> 100 µM	> 100 µM	> 100 µM	> 100 µM	> 100 µM	> 100 µM	> 100 µM	> 100 µM	> 100 µM	> 100 µM	> 100 µM	> 100 µM	> 100 µM	> 100	> 100 µM	> 100 µM	> 100 µM	> 100 µM
O=C(CN1CCN(c2ccccn2)CC1)Nc1ccc(Cl)cc1C(=O)c1ccccc1Cl	> 100 µM	> 100 µM	86.8 µM	> 100 µM	10.2 µM	38.3 µM	> 100 µM	> 100 µM	54.9 µM	> 100 µM	> 100 µM	> 100 µM	86.2 µM	> 100 µM	9.99 µM	> 100	7.85 µM	> 100 µM	28.4 µM	> 100 µM
C=CC(=O)Nc1cccc(Nc2nc(Nc3ccc(N4CCN(C(C)=O)CC4)cc3OC)ncc2C(F)(F)F)c1	8.88 µM and 3.09 µM	> 10 µM and 16.4 µM	7.5 µM and 9.09 µM	> 74.4 µM	4.12 µM and 4.3 µM	> 10 µM and 17.9 µM	2.04 µM and 2.23 µM	6.83 µM and 10.8 µM	3.97 µM and 2.97 µM	> 10 µM and 68.8 µM	0.211 µM and 0.291 µM	2.8 µM and 5.29 µM	5.27 µM and 5.47 µM	> 10 µM and 30 µM	3.62 µM and 4.32 µM	> 65.5	3.06 µM and 2.94 µM	> 10 µM and 13.8 µM	4.11 µM and 2.95 µM	> 10 µM and 19.2 µM
NCCNc1ncnc2ccc(Cl)cc12		> 100 µM		> 100 µM		> 100 µM		> 100 µM		> 100 µM		> 100 µM		> 100 µM		> 100		> 100 µM		> 100 µM
CNCC1CCn2c(c(C3=C(c4cn(C)c5ccccc45)C(=O)NC3=O)c3ccccc32)C1 (configuration not stated)	2.13 µM	5.52 µM	10.2 µM	25 µM	3.88 µM	7.97 µM	3.33 µM	7.07 µM	3.56 µM	7.55 µM	5.18 µM	16.4 µM	2.99 µM	8.03 µM	2.89 µM	12	5.04 µM	16.5 µM	2.75 µM	5.94 µM
CCCCCCCCCCCCCCCC(N)c1ccccc1 (configuration not stated)	1.6 µM	3.28 µM	1.85 µM	3.66 µM	1.67 µM	3.23 µM	1.68 µM	3.35 µM	1.78 µM	3.4 µM	1.58 µM	2.92 µM	1.74 µM	3.35 µM	1.98 µM	4.33	1.67 µM	3.09 µM	1.61 µM	3.04 µM
COc1ccc(-c2cc3c(N)ncnc3o2)cc1	15.5 µM	> 25 µM	> 25 µM	> 25 µM	> 22.4 µM	> 25 µM	> 25 µM	> 25 µM	> 25 µM	> 25 µM	> 25 µM	> 25 µM	> 25 µM	> 25 µM	> 25 µM	> 25	> 25 µM	> 25 µM	> 25 µM	> 25 µM
CCC(=O)OCN1C(=O)C=CC1=O	16 µM	31.5 µM and 27.6 µM		56.2 µM and 63.5 µM	18.9 µM	42.5 µM and > 58.1 µM		29.3 µM	15.7 µM	29.4 µM and 22.2 µM	> 100 µM	> 100 µM	20.1 µM	39.6 µM and 34.7 µM		1.84	20.1 µM	39.7 µM and 56.8 µM	17.4 µM	32.8 µM and 28.5 µM
